Source: the NIST ThermoML archive (doi:10.1021/je600559q)

Key:
[1] = refractive index (Na D-line) (dimensionless); details: 293.1 K; 101.33 kPa; Liquid; Standard Abbe refractometry
[2] = Liquid

CC(=O)OC1CCCCC1C (configuration not stated) [2-methylcyclohexyl acetate]
Details | refractive index
[1] | 1.43896

[2]
Details | vapor or sublimation pressure [kPa]
368.01 K | 5.32
369.86 K | 5.758
371.87 K | 6.261
373.83 K | 6.787
376.56 K | 7.594
379.93 K | 8.675
383.36 K | 9.912
386.65 K | 11.22
391.27 K | 13.32
393.39 K | 14.38
394.15 K | 14.77
398.42 K | 17.2
401.6 K | 19.19
403.3 K | 20.34
405.73 K | 22.08
410.71 K | 26.01
415.57 K | 30.39
418.74 K | 33.54
421.2 K | 36.16
423.84 K | 39.17
426.54 K | 42.45
429.41 K | 46.21
433.2 K | 51.55
440.4 K | 63.09
458 K | 100.13

CC1CCCCC1O (configuration not stated) [2-methylcyclohexanol]
Details | refractive index
[1] | 1.46313

[2]
Details | vapor or sublimation pressure [kPa]
361.23 K | 5.394
362.23 K | 5.668
363.13 K | 5.919
365.7 K | 6.693
367.68 K | 7.345
369.92 K | 8.152
371.63 K | 8.817
373.16 K | 9.448
375.31 K | 10.4
377.78 K | 11.58
380.39 K | 12.94
383.11 K | 14.52
385.95 K | 16.32
386.1 K | 16.42
389.56 K | 18.86
393.07 K | 21.65
395.88 K | 24.1
398.52 K | 26.6
402.67 K | 30.99
406.67 K | 35.73
410.73 K | 41.11
414 K | 45.9
418.26 K | 52.85
424.63 K | 64.66
439.57 K | 100.47
